Results taken from PubChem BioAssay (NCI).
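Protocol summary: plate cells (96-well), add compound at 5 concentrations, incubate 48 h, interpolate endpoints linearly. TGI is the concentration that stops growth completely.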

Tests used:
Experiment in all cases: DTP human tumour cell line panel, 48 h
786-0 renal = tested on: 786-0 renal
A498 renal = tested on: A498 renal
A549 NSCLC = tested on: A549 NSCLC
ACHN renal = tested on: ACHN renal
CAKI-1 renal = tested on: CAKI-1 renal
CCRF-CEM leukemia = tested on: CCRF-CEM leukemia
COLO 205 colon = tested on: COLO 205 colon
DLD-1 colon = tested on: DLD-1 colon
DMS 114 small cell lung = tested on: DMS 114 small cell lung
DMS 273 small cell lung = tested on: DMS 273 small cell lung
EKVX NSCLC = tested on: EKVX NSCLC
HCC-2998 colon = tested on: HCC-2998 colon
HCT-116 colon = tested on: HCT-116 colon
HCT-15 colon = tested on: HCT-15 colon
HOP-18 NSCLC = tested on: HOP-18 NSCLC
HOP-62 NSCLC = tested on: HOP-62 NSCLC
HOP-92 NSCLC = tested on: HOP-92 NSCLC
HT29 colon = tested on: HT29 colon
IGROV1 ovarian = tested on: IGROV1 ovarian
K-562 leukemia = tested on: K-562 leukemia
KM12 colon = tested on: KM12 colon
KM20L2 colon = tested on: KM20L2 colon
LOX IMVI melanoma = tested on: LOX IMVI melanoma
LXFL 529 NSCLC = tested on: LXFL 529 NSCLC
M14 melanoma = tested on: M14 melanoma
M19-MEL melanoma = tested on: M19-MEL melanoma
MALME-3M melanoma = tested on: MALME-3M melanoma
MOLT-4 leukemia = tested on: MOLT-4 leukemia
NCI-H226 lung = tested on: NCI-H226 lung
NCI-H23 lung = tested on: NCI-H23 lung
NCI-H460 lung = tested on: NCI-H460 lung
NCI-H522 lung = tested on: NCI-H522 lung
OVCAR-3 ovarian = tested on: OVCAR-3 ovarian
OVCAR-4 ovarian = tested on: OVCAR-4 ovarian
OVCAR-5 ovarian = tested on: OVCAR-5 ovarian
OVCAR-8 ovarian = tested on: OVCAR-8 ovarian
RPMI-8226 leukemia = tested on: RPMI-8226 leukemia
RXF 393 renal = tested on: RXF 393 renal
SF-268 CNS = tested on: SF-268 CNS
SF-539 CNS = tested on: SF-539 CNS
SK-MEL-28 melanoma = tested on: SK-MEL-28 melanoma
SK-MEL-5 melanoma = tested on: SK-MEL-5 melanoma
SK-OV-3 ovarian = tested on: SK-OV-3 ovarian
SN12C renal = tested on: SN12C renal
SNB-19 CNS = tested on: SNB-19 CNS
SNB-75 CNS = tested on: SNB-75 CNS
SNB-78 CNS = tested on: SNB-78 CNS
SW-620 colon = tested on: SW-620 colon
U251 CNS = tested on: U251 CNS
UACC-257 melanoma = tested on: UACC-257 melanoma
UACC-62 melanoma = tested on: UACC-62 melanoma
UO-31 renal = tested on: UO-31 renal
XF 498 CNS = tested on: XF 498 CNS

Measured: TGI

Cc1ccc(S(=O)(=O)NC2CCCCO2)cc1 (stereo not drawn)
> 100 µM: 786-0 renal | A498 renal | A549 NSCLC | ACHN renal | CAKI-1 renal | CCRF-CEM leukemia | COLO 205 colon | DLD-1 colon | DMS 114 small cell lung | DMS 273 small cell lung | EKVX NSCLC | HCC-2998 colon | HCT-116 colon | HCT-15 colon | HOP-18 NSCLC | HOP-62 NSCLC | HOP-92 NSCLC | HT29 colon | IGROV1 ovarian | K-562 leukemia | KM12 colon | KM20L2 colon | LOX IMVI melanoma | LXFL 529 NSCLC | M14 melanoma | M19-MEL melanoma | MALME-3M melanoma | MOLT-4 leukemia | NCI-H226 lung | NCI-H23 lung | NCI-H460 lung | NCI-H522 lung | OVCAR-3 ovarian | OVCAR-4 ovarian | OVCAR-5 ovarian | OVCAR-8 ovarian | RPMI-8226 leukemia | RXF 393 renal | SF-268 CNS | SF-539 CNS | SK-MEL-28 melanoma | SK-MEL-5 melanoma | SK-OV-3 ovarian | SN12C renal | SNB-19 CNS | SNB-75 CNS | SNB-78 CNS | SW-620 colon | U251 CNS | UACC-257 melanoma | UACC-62 melanoma | UO-31 renal | XF 498 CNS
